Laboratory results published in patent US20160362416A1, “ANTIVIRAL COMPOUNDS” (Gilead Sciences, Inc., priority 2012, published 2016).

Experiments:
Format in all cases: cell-based
[1] = tested on: stable HCV 1b RLuc replicon cells (genotype 1b Con1 replicon); assay: HCV genotype 1b RLuc replicon reporter assay; conditions: Hepatitis C virus; stable genotype 1b Con1 RLuc replicon cells, 72 hours
Procedure: (§1) Evaluation of cell-based anti-HCV activity: Antiviral potency (EC50) was determined using a Renilla luciferase (RLuc)-based HCV replicon reporter assay. To perform the assay for genotype 1 and 2a JFH-1, stable HCV 1a RLuc replicon cells (harboring a dicistronic genotype 1a H77 replicon that encodes a RLuc reporter), stable HCV lb RLuc replicon cells (harboring a dicistronic genotype 1b Conl replicon that encodes a RLuc reporter), or stable HCV 2a JFH-1 Rluc replicon cells (harboring a dicistronic genotype 2a JFH-1 replicon that encodes a RLuc reporter; with L31 present in NS5A) were dispensed into 384-well plates for EC50 assays. To perform the assay for genotype 2a (with M31 present in NS5A) or 2b, NS5A chimeric genotype 2a JFH-1 replicons that encodes a RLuc-Neo reporter and either genotype 2a J6 strain NS5A gene or genotype 2b MD2b-1 strain NS5A gene (both with M31 present) respectively, were either transiently transfected (t) into Huh-Lunet cells or were established as stably replicating replicon cells (s) is provided. Either cells were dispensed into 384-well plates for EC50 assays. To perform the assay for genotype 3 and 4, NS5A chimeric genotype 1b Conl replicons that encodes a Pi-RLuc reporter and either genotype 3a S52 strain NS5A gene or genotype 4a ED43 strain NS5A gene respectively, were transiently transfected (t) into Huh-Lunet cells, which were subsequently dispensed into 384-well plates. Compounds were dissolved in DMSO at a concentration of 10 mM and diluted in DMSO either manually or using an automated pipeting instrument. Serially 3-fold diluted compounds were either manually mixed with cell culture media and added to the seeded cells or directly added to the cells using an automated instrument. DMSO was used as a negative (solvent; no inhibition) control, and the protease inhibitor ITMN-191 was included at a concentration >100×EC50 as a positive control. 72 hours later, cells were lysed and Renilla luciferase activity quantified as recommended by the manufacturer (Promega-Madison, Wis.). Non-linear regression was performed to calculate EC50 values.

[2] = tested on: stable HCV 1a RLuc replicon cells (genotype 1a H77 replicon); assay: HCV genotype 1a RLuc replicon reporter assay; conditions: Hepatitis C virus; stable genotype 1a H77 RLuc replicon cells, 72 hours
Procedure: as §1

[3] = tested on: NS5A chimeric genotype 2a JFH-1 replicon with genotype 2a J6 strain NS5A gene (M31); assay: HCV genotype 2a J6 NS5A chimeric replicon assay, transient (t); conditions: Hepatitis C virus, 72 h, read-out: 2a J6 (t) (nM)
Procedure: as §1

[4] = tested on: stable HCV 2a JFH-1 Rluc replicon cells (L31 present in NS5A); assay: HCV genotype 2a JFH-1 RLuc replicon reporter assay; conditions: Hepatitis C virus, 72 h, read-out: 2a JFH (nM)
Procedure: as §1

[5] = tested on: NS5A chimeric genotype 2a JFH-1 replicon with genotype 2b MD2b-1 strain NS5A gene (M31); assay: HCV genotype 2b NS5A chimeric replicon assay, stable (s); conditions: Hepatitis C virus, 72 h, read-out: 2b (s) (nM)
Procedure: as §1

[6] = tested on: NS5A chimeric genotype 1b Con1 replicon with genotype 4a ED43 strain NS5A gene; assay: HCV genotype 4a NS5A chimeric replicon assay; conditions: Hepatitis C virus, 72 h, read-out: 4a (s) (nM)
Procedure: as §1, with “[…],” for “were transiently transfected (t) into Huh-Lunet cells,”

[7] = tested on: NS5A chimeric genotype 1b Con1 replicon with genotype 3a S52 strain NS5A gene; assay: HCV genotype 3a NS5A chimeric replicon assay; conditions: Hepatitis C virus, 72 h, read-out: 3a (nM)
Procedure: as §1

Compound | EC50 [1] | EC50 [2] | EC50 [3] | EC50 [4] | EC50 [5] | EC50 [6] | EC50 [7]
COC[C@H]1C[C@@H](c2ncc(-c3ccc4c(c3)COc3cc5c(ccc6nc([C@@H]7CC[C@H](C)N7C(=O)[C@@H](NC(=O)OC)C(C)C)[nH]c65)cc3-4)[nH]2)N(C(=O)[C@@H](NC(=O)OC)C2CCOCC2)C1 [Comp 2, reference compound] | 0.064 nM | 0.055 nM | 0.083 nM | – | – | – | –
COC(=O)N[C@H](C(=O)N1[C@@H](C)CC[C@H]1c1ncc(-c2ccc3c(c2)COc2cc4c(ccc5nc([C@@H]6CC[C@H](C)N6C(=O)[C@@H](NC(=O)OC)C6(C)CCOCC6)[nH]c54)cc2-3)[nH]1)C(C)C [Example AD, Methyl [(2S)-1-{(2S,5S)-2-[5-(2-{(2S,5S)-1-[(2S)-2-[(methoxycarbonyl)amino]-2-(4-methyltetrahydro-2H-pyran-4-yl)acetyl]-5-methylpyrrolidin-2-yl}-1,11-dihydroisochromeno[4′,3′:6,7]naphtho[1,2-d]imidazol-9-yl)-1H-imidazol-2-yl]-5-methylpyrrolidin-1-yl}-3-methyl-1-oxobutan-2-yl]carbamate] | 0.031 nM | 0.021 nM | 1.02 nM | 0.027 nM | 0.351 nM | 0.018 nM | 0.074 nM
COC(=O)N[C@H](C(=O)N1[C@@H](C)CC[C@H]1c1nc2ccc3cc4c(cc3c2[nH]1)OCc1cc(-c2cnc([C@@H]3CC[C@H](C)N3C(=O)[C@H](NC(=O)OC)[C@H]3C[C@@H](C)O[C@@H](C)C3)[nH]2)ccc1-4)C(C)C [Example AP, Methyl {(2S)-1-[(2S,5S)-2-(9-{2-[(2S,5S)-1-{(2R)-2-[(2R,6S)-2,6-dimethyltetrahydro-2H-pyran-4-yl]-2-[(methoxycarbonyl)amino]acetyl}-5-methylpyrrolidin-2-yl]-1H-imidazol-5-yl}-1,11-dihydroisochromeno[4′,3′:6,7]naphtho[1,2-d]imidazol-2-yl)-5-methylpyrrolidin-1-yl]-3-methyl-1-oxobutan-2-yl}carbamate] | 0.038 nM | 1.52 nM | 4.44 nM | 1.1 nM | 4.44 nM | 1.19 nM | 4.44 nM
COC(=O)N[C@H](C(=O)N1[C@@H](C)CC[C@H]1c1ncc(-c2ccc3c(c2)COc2cc4c(ccc5nc([C@@H]6CC[C@H](C)N6C(=O)[C@H](NC(=O)OC)C6C[C@@H](C)O[C@H](C)C6)[nH]c54)cc2-3)[nH]1)C(C)C (stereo partly drawn) [Example AR, Methyl {(2S)-1-[(2S,5S)-2-(5-{2-[(2S,5S)-1-{(2R)-2-[(2R,6R)-2,6-dimethyltetrahydro-2H-pyran-4-yl]-2-[(methoxycarbonyl)amino]acetyl}-5-methylpyrrolidin-2-yl]-1,11-dihydroisochromeno[4′,3′:6,7]naphtho[1,2-d]imidazol-9-yl}-1H-imidazol-2-yl)-5-methylpyrrolidin-1-yl]-3-methyl-1-oxobutan-2-yl}carbamate] | 0.09 nM | 8.98 nM | 5.14 nM | 2.11 nM | 15.8 nM | 4.19 nM | 8.3 nM
COC(=O)N[C@H](C(=O)N1CCC[C@H]1c1ncc(-c2ccc3c(c2)COc2cc4c(ccc5nc([C@@H]6CCCN6C(=O)[C@@H](NC(=O)OC)C6CCOCC6)[nH]c54)cc2-3)[nH]1)C1CCOCC1 [Comp 11, reference compound] | 0.416 nM | 0.203 nM | – | – | 0.203 nM | – | –
COC(=O)N[C@H](C(=O)N1[C@@H](C)CC[C@H]1c1nc2ccc3cc4c(cc3c2[nH]1)OCc1cc(-c2cnc([C@@H]3CC[C@H](C)N3C(=O)[C@@H](NC(=O)OC)C3(C)CCOCC3)[nH]2)ccc1-4)C(C)C [Example AL, Methyl [(2S)-1-{(2S,5S)-2-[9-(2-{(2S,5S)-1-[(2S)-2-[(methoxycarbonyl)amino]-2-(4-methyltetrahydro-2H-pyran-4-yl)acetyl]-5-methylpyrrolidin-2-yl}-1H-imidazol-5-yl)-1,11-dihydroisochromeno[4′,3′:6,7]naphtho[1,2-d]imidazol-2-yl]-5-methylpyrrolidin-1-yl}-3-methyl-1-oxobutan-2-yl]carbamate] | 0.03 nM | 0.02 nM | 0.776 nM | 0.026 nM | 0.713 nM | 0.028 nM | 0.086 nM
CCOC(=O)N[C@H](C(=O)N1[C@@H](C)CC[C@H]1c1ncc(-c2ccc3c(c2)COc2cc4c(ccc5nc([C@@H]6CC[C@H](C)N6C(=O)[C@@H](NC(=O)OCC)C6C[C@@H](C)O[C@H](C)C6)[nH]c54)cc2-3)[nH]1)C1C[C@@H](C)O[C@H](C)C1 (stereo partly drawn) [Example BM, Ethyl {(1S)-1-[(2R,6R)-2,6-dimethyltetrahydro-2H-pyran-4-yl]-2-[(2S,5S)-2-(5-{2-[(2S,5S)-1-{(2S)-2-[(2R,6R)-2,6-dimethyltetrahydro-2H-pyran-4-yl]-2-[(ethoxycarbonyl)amino]acetyl}-5-methylpyrrolidin-2-yl]-1,11-dihydroisochromeno[4′,3′:6,7]naphtho[1,2-d]imidazol-9-yl}-1H-imidazol-2-yl)-5-methylpyrrolidin-1-yl]-2-oxoethyl}carbamate] | 0.053 nM | 0.034 nM | – | 0.023 nM | – | 0.039 nM | 0.143 nM
COC(=O)N[C@H](C(=O)N1[C@@H](c2ncc(-c3ccc4c(c3)COc3cc5c(ccc6nc([C@H]7C[C@@H](C)[C@@H](C)N7C(=O)[C@@H](NC(=O)OC)C7C[C@@H](C)O[C@H](C)C7)[nH]c65)cc3-4)[nH]2)C[C@@H](C)[C@H]1C)C1C[C@@H](C)O[C@H](C)C1 (stereo partly drawn) [Example BC, Methyl {(1S)-1-[(2R,6R)-2,6-dimethyltetrahydro-2H-pyran-4-yl]-2-[(2R,3R,5R)-5-(5-{2-[(2R,4R,5R)-1-{(2S)-2-[(2R,6R)-2,6-dimethyltetrahydro-2H-pyran-4-yl]-2-[(methoxycarbonyl)amino]acetyl}-4,5-dimethylpyrrolidin-2-yl]-1,11-dihydroisochromeno[4′,3′:6,7]naphtho[1,2-d]imidazol-9-yl}-1H-imidazol-2-yl)-2,3-dimethylpyrrolidin-1-yl]-2-oxoethyl}carbamate] | 2.47 nM | 10.1 nM | – | 8.04 nM | 23.1 nM | 6.24 nM | 23.3 nM
